{"source": "patent US11109819B2", "about": "“System and method for quantitatively mapping mitochondrial membrane potential” (The General Hospital Corporation, priority 2016, dated 2021)", "key": {"[1]": {"settings": "mouse tissues; FIGS. 1-5 of US 2013/0064768 A1; cited from earlier work"}, "[2]": {"assay": "Arterial and venous blood sampling of 18F-TPP+, whole blood to plasma concentration ratio", "assay_type": "in vivo, domestic swine", "description": "(§1) Pigs were fasted 12 hours prior to induction of anesthesia, sedated with 4.4 mg/kg Telazol, placed on 5% masked isoflurane, intubated, maintained with 1.5% isoflurane and mechanically ventilated. Vital signs were monitored continuously. Vascular access was obtained via the femoral veins for injection of PET radiotracer and iodinated contrast media. An arterio-venous shunt was placed in the left femoral artery for blood withdrawal.\nArterial blood sampling of ^18F-TPP^+ were drawn every 10 seconds for the first 3 minutes, then at 1 minute intervals for 5 minutes, and at increasing intervals until 120 minutes post injection. In two studies, venous several blood samples were also drawn at 5, 10, 15, 30, 60 and 90 minutes for comparison with arterial samples. All blood samples were centrifuged to determine plasma and red cell concentration histories. Concentration ratios of whole blood to plasma were computed."}, "[3]": {"assay": "Dynamic PET/CT with Logan plot, parametric map of 18F-TPP+ volume of distribution Vd", "assay_type": "in vivo, domestic swine", "settings": "pig with experimental tissue injury in LAD territory, FIG. 8", "description": "The study cohort consisted of n=9 domestic swine which were divided into two groups, control (n=6) and tissue injury (scar) (n=3). […] Pigs were housed and maintained under the supervision of the Massachusetts General Hospital Animal Care and Use Committee. Studies were conducted serially, one pig at a time, from August 2014 till October 2015. The weight of the pigs at scan averaged 53.1 kg with a range from 30-92 kg.\nas §1, with “An arterio-venous shunt was placed in the left femoral artery for blood withdrawal.” left out\nPET Scans were performed on a Siemens Biograph PET/CT scanner: A planar x-ray topogram was performed to define the field of view (FOY) with the heart centered for computed tomography (CT), CT-angiogram (CTA) and PET acquisitions. […] Each frame was reconstructed using a filtered back projection algorithm to yield a radioactivity concentration map in units of Bq/cc with 83 slices and a voxel size of 2.14×2.14×3 mm^3.\nDynamic PET data were analyzed using a Logan plot (Logan, Fowler et al. 1990) to produce parametric images of the ^18F-TPP^+ volume of distribution, Vd and reoriented into the short axis projection. […]"}, "[4]": {"assay": "Time course of tracer concentration to steady state (FIG. 4, FIG. 11)", "assay_type": "in vivo, domestic swine", "excerpt": "Applicants use a few administration methods including a constant infusion, a pulse or bolus injection or a combination of a constant infusion a pulse or bolus injection. To date, most of Applicants work has used the kinetic approach because it carries the complete information available from our measurements. By analyzing the kinetic data (concentration vs time), Applicants can infer the steady state based on the ratio of the tissue concentration to the plasma concentration. […] The addition of the pulse or bolus injection to the constant infusion can shorten the time needed to impose the steady state for TPP^+. In this case both the plasma and myocardial concentrations become constant after about 90 minutes. The two color pictures are from studies in the same pig but measured on different days, one using constant infusion and the other the kinetic protocol. Note the excellent agreement between the two methods."}, "[5]": {"assay": "Comparison of myocardial kinetics of TPP+ and Flurpiridaz (FIG. 4)", "assay_type": "in vivo", "excerpt": "FIG. 4 is a graphical illustration depicting comparison of myocardial kinetics of TPP^| and Flurpiridaz. The black line (the top line) depicts Flurpiridaz kinetics; whereas, the red line (the bottom line) depicts TPP^+ kinetics. Concentrations are normalized to remove the effect of injected radioactivity dose.\nTo provide a direct observation Applicants compared the kinetics of ^18F-TPP^+ to those of ^18F-Flurppiridaz, a tracer with high first pass capillary extraction (E>0.9). […] Thus it is unlikely that TPP^+ can provide useful myocardial flow measurements, per se."}, "[6]": {"settings": "in vivo; cited from earlier work"}}, "note": "Entries after “also recorded” stand apart in the source; their conditions may differ."}
{"smiles": "C[P+](c1ccccc1)(c1ccccc1)c1ccccc1", "note": "[TPMP, triphenylmethylphosphonium^+]", "values": [{"measurement": "reaching a steady state within an hour", "setting": "[1]", "result": "none of MitoQ, DecylTPP, FluroUndecylTPP and TPMP reach a steady state"}]}
{"smiles": "[18F]c1ccc([P+](c2ccccc2)(c2ccccc2)c2ccccc2)cc1", "note": "[^18F-TPP^+, ^18F-tetraphenylphosphonium]", "values": [{"measurement": "concentration ratio for whole blood versus plasma", "setting": "[2]; constant value after injection", "result": 0.95}, {"measurement": "time after injection at which whole blood versus plasma ratio became constant", "setting": "[2]; in vivo", "result": "about 10 minutes"}, {"measurement": "time the whole blood versus plasma ratio remained constant (duration of measurement)", "setting": "[2]; in vivo", "result": 120, "unit": "min"}, {"measurement": "agreement of venous and arterial samples", "setting": "[2]; samples obtained at least 10 minutes after injection", "result": "good agreement"}, {"measurement": "volume of distribution Vd", "setting": "[3]; areas in other vascular territories", "result": 25, "unit": "mL/cc"}, {"measurement": "volume of distribution Vd", "setting": "[3]; core of the injury", "result": 2, "unit": "mL/cc"}, {"measurement": "time remaining in the steady state", "setting": "[4]; in a subject", "result": "at least 2 hours"}, {"measurement": "time to reach a steady state in subject / tissue", "setting": "[4]; in vivo tissue, FIG. 4 and FIG. 11", "result": "within minutes; also recorded: within two hours"}, {"measurement": "time after which plasma and myocardial concentrations become constant", "setting": "[4]; intravenous pulse of TPP+ followed by constant infusion, FIG. 11", "result": "about 90 minutes"}, {"measurement": "accumulation in the myocardium", "setting": "[5]", "result": "accumulates slowly in the myocardium"}, {"measurement": "extraction compared with 18F-Flurppiridaz", "setting": "[5]; myocardium", "result": "much lower"}, {"measurement": "kinetics compared with 18F-Flurppiridaz", "setting": "[5]; myocardium", "result": "much slower kinetics"}]}
{"smiles": "CCCCCCCCCC[P+](c1ccccc1)(c1ccccc1)c1ccccc1", "note": "[DecylTPP]", "values": [{"measurement": "reaching a steady state within an hour", "setting": "[1]", "result": "none of MitoQ, DecylTPP, FluroUndecylTPP and TPMP reach a steady state"}]}
{"smiles": "COC1=C(OC)C(=O)C(CCCCCCCCCC[P+](c2ccccc2)(c2ccccc2)c2ccccc2)=C(C)C1=O", "note": "[MitoQ]", "values": [{"measurement": "reaching a steady state within an hour", "setting": "[1]", "result": "none of MitoQ, DecylTPP, FluroUndecylTPP and TPMP reach a steady state"}]}
{"smiles": "CC(C)(C)n1ncc(OCc2ccc(COCCF)cc2)c(Cl)c1=O", "note": "[^18F-Flurppiridaz]", "values": [{"measurement": "first pass capillary extraction E", "setting": "[6]", "result": "> 0.9"}]}
